From patent US8486429B2, “Storage stable formulation and a process for its preparation” (priority 2005, dated 2013)
Like-named read-outs stand apart in the source and are kept apart here.

Legend:
[1] = tested on: rats; conditions: cited from earlier work
[2] = cited from earlier work
[3] = tested on: rats; conditions: cited from earlier work; remark: listed apart in the source
[4] = tested on: rats; conditions: cited from earlier work; remark: listed apart in the source
[5] = tested on: rabbits; conditions: cited from earlier work
[6] = tested on: mice; conditions: cited from earlier work
[7] = cited from earlier work; for DT50 (hydrolysis): 40° C.; for DT 50 (calculated) (hydrolysis): 20° C.
[8] = tested on: insect; assay: Synergistic insecticidal effect of Imidacloprid + Acephate (mortality, Colby's method); type: in vivo
Description: Synergism can be calculated by using the Colby's method i.e. the expected (or predicted) response of the combination is calculated by taking the product of the observed response for each individual component of the combination when applied alone divided by 100 and subtracting this value from the sum of observed response for each component when applied alone. Synergism of the combination is then determined by comparing the observed response of the combination to the expected (or predicted) response as calculated from the observed response of each individual component alone. If the observed response of the combination is greater than the expected (or predicted) response then the combination is said to be synergistic and falls within the definition of synergistic effect. (Colby, S. R., Weeds, 1967(15), p. 20-22)

[9] = AHS stability study in trilaminated pouches, 14 days at 30, 45 and 54° C.: active content and pH of 1% aq. solution/suspension; type: physicochemical; conditions: for extent to which Acephate degrades: 54° C.
Description: Acephate technical of 97.5% purity was taken and kept in AHS stability study at 30, 45 and 54° C. in trilaminated pouches. The results of the AHS experiment for Acephate Technical are seen in the following Tables 1, 2 and 3.
40 gm Acephate technical of 97.5% purity was taken from plant and mixed with 10 gm of citric acid by using laboratory made mixture to obtained homogenious powder and is then kept in AHS at 30, 45 and 54° C. in trilaminated pouches.
40 gm Acephate technical of 97.5% purity was taken from plant and mixed with 5 gm of citric acid by using laboratory made mixture to obtained homogenious powder and is the kept in AHS at 30, 45 and 54° C. in trilaminated pouches.
48 gm Acephate technical of 97.5% purity was taken from plant and mixed with 2 gm of citric acid by using laboratory made mixture to obtained homogenious powder and is the kept in AHS at 30, 45 and 54° C. in trilaminated pouches.
Acephate technical of 97.5% purity was taken from the plant and mixed in a laboratory mixer by adding 1% water and was then kept in AHS stability study at 30° C., 45° C. and 54° C. in trilaminated pouches.
Acephate technical of 97.5% purity was taken from the plant and mixed in laboratory mixer by adding 1% water 4% citric acid and was then kept in AHS stability study at 30, 45 and 54° C. in trilaminated pouches.
Imidacloprid technical was taken from the plant and is kept in AHS stability study at 30, 45 and 54° C. in trilaminated pouches.
Imidacloprid technical was taken from the plant and mixed in laboratory mixer by adding 1% water and is then is kept in AHS stability study at 45 and 54° C. in trilaminated pouches.
40 gm of Imidacloprid technical and 10 gm of citric acid was mixed in laboratory mixer and was then kept in AHS stability study at 30, 45 and 54° C. in trilaminated pouches,
45 gm of Imidacloprid technical and 05 gm of citric acid was mixed in laboratory mixer and was then kept in AHS stability study at 30° C., 45° C. and 54° C. in trilaminated pouches.
48 gm of Imidacloprid technical and 2 gm of citric acid was mixed in laboratory mixer and was then kept in AHS stability study at 30, 45 and 54° C. in trilaminated pouches.
49.5 gm of Imidacloprid technical and 0.5 gm of citric acid was mixed in laboratory mixer and was then kept in AHS stability study at 30, 45 and 54° C. in trilaminated pouches.
Imidacloprid technical was taken from plant and mixed in laboratory mixer by adding 10 gm citric acid and 2 gm water and is then is kept in AHS stability study at 30, 45 and 54° C. in trilaminated pouches,
Imidacloprid technical was taken from the plant and mixed in laboratory mixer by adding 5 gm citric acid and 2 gm water and was then kept in AHS stability study at 30, 45 and 54° C. in trilaminated pouches.
53 gm of Acephate technical was taken from the plant and mixed in a laboratory mixer by adding 3 gm imidacloprid without coating and without any citric acid. This was then kept in AHS stability study at 30, 45 and 54° C. in trilaminated pouches.
53 gm of Acephate technical was taken from the plant and mixed in a laboratory mixer by adding 3 gm imidacloprid without encapsulation and with 2.2 gm of citric acid . This was then kept in AHS stability study at 30, 45 and 54° C. in trilaminated pouches.
In a laboratory plough shear mixture 291.5 gm of Imidacloprid of particle size ranging from 15 micron to 50 micron was charged and blended by operating only the plough. Then 204 gm PEG-8000 was heated in a separate vessel at 65° C. for 15 min. […]

[10] = tested on: crop plants; conditions: in vivo; cited from earlier work
[11] = in vivo; cited from earlier work
[12] = mammals, oral administration, within 24 hours, almost entirely in the urine; cited from earlier work

## C/C(=N\C#N)N(C)Cc1ccc(Cl)nc1 [Acetamiprid]
[1]; male and female rats
  Acute percutaneous LD50: > 2000 mg/kg
[2]; acetone, methanol, ethanol, dichloromethane, chloroform, acetonitrile and tetrahydrofuron
  solubility in organic solvents: soluble
[3]; female rats
  acute oral LD50: 146 mg/kg
[3]; male rats
  acute oral LD50: 217 mg/kg
[4]; male and female rats
  inhalation LC50 (4 h): > 0.29 mg/L
[5]
  irritation to skin and eyes: Non irritating
[6]; female mice
  acute oral LD50: 184 mg/kg
[6]; male mice
  acute oral LD50: 198 mg/kg
[7]; pH 4, 5, 7
  stability in buffered solutions: Stable
[7]; pH 9 and 45° C.
  stability: Degraded slowly
[7]; sunlight
  stability under sunlight: Stable

## COP(=O)(NC(C)=O)SC (stereo not shown) [Experiment 1, O,S-dimethylacetylphosphoramidothioate]
[2]; 20° C.
  solubility in ethanol: > 100 mg/mL
  solubility in water: about 790 g/l
[8]; Imidacloprid 0 ppm, Acephate 600 ppm
  Observed Mortality %: 52.50%
[8]; Imidacloprid 0 ppm, Acephate 700 ppm
  Observed Mortality %: 60.00%
[8]; Imidacloprid 0 ppm, Acephate 800 ppm
  Observed Mortality %: 70.00%
[9]; presence of 1% moisture, absence of Citric acid, initial pH of 4.70
  extent to which Acephate degrades: 12.84%
[9]; presence of Citric acid and 1% moisture, initial pH 3.18
  extent to which Acephate degrades: 6.88%
[10]
  phytotoxicity: non-phytotoxic to most crop plants
[7]; pH 3
  DT50 (hydrolysis): 710 h
[7]; pH 9
  DT50 (hydrolysis): 60 h

## O=[N+]([O-])NC1=NCCN1Cc1ccc(Cl)nc1 [Experiment 7, 1-(6-chloro-3-pyridylmet-hyl)-N-nitroimidazolidin-2-yldeneamine]
[1]; rats, 24 h
  Acute percutaneous LD50 (24 h): > 5000 mg/kg
[2]; 20° C.
  solubility in hexane: < 0.1 mg/mL
[4]; female rats, aerosol
  inhalation LC50 (4 h): > 5323 mg/m^3 air
[5]
  irritation to skin and eyes: Non irritating
[8]; Imidacloprid 24 ppm, Acephate 0 ppm
  Observed Mortality %: 55.00%
[8]; Imidacloprid 27 ppm, Acephate 0 ppm
  Observed Mortality %: 69.25%
[8]; Imidacloprid 30 ppm, Acephate 0 ppm
  Observed Mortality %: 72.10%
[11]
  skin sensitisation: Not a skin sensitiser
[9]; pH of 2.68, Imidacloprid:citric acid 40:10
  Stability of Imidacloprid: still more unstable
[9]; pH of 3.60, Imidacloprid:Citric acid 49.5:0.5
  Stability of Imidacloprid: unstable
[9]; pH of 5.90
  Stability of Imidacloprid: stable
[7]; pH of 5.60
  Stability of imidacloprid reported in literature: stable

## CCN(CC)C(=O)C(Cl)=C(C)OP(=O)(OC)OC [Phosphamidon, 2-chloro-2-diethylcarbamoyl-1-methylvinyldimethylphosphate]
[12]
  % of the dose excreted: 85-90%
[7]; pH 5
  DT 50 (calculated) (hydrolysis): 60 days
[7]; pH 7
  DT 50 (calculated) (hydrolysis): 54 days
[7]; pH 9
  DT 50 (calculated) (hydrolysis): 12 days
